Results from PubChem BioAssay (NCI).
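Briefly, cells in 96-well plates were exposed to five compound concentrations for 48 h, and endpoints were estimated by linear interpolation. GI50 is the concentration that inhibits growth by half. TGI: total growth inhibition.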

Columns and labels:
Assay in all cases: NCI anticancer screen, dose series, 48 h
[1] = tested on: NCI-H460 lung
[2] = tested on: NCI-H522 lung
[3] = tested on: SN12C renal
[4] = tested on: UACC-62 melanoma
[5] = tested on: OVCAR-8 ovarian
[6] = tested on: SNB-19 CNS
[7] = tested on: T-47D breast
[8] = tested on: RPMI-8226 leukemia
[9] = tested on: SK-OV-3 ovarian
[10] = tested on: NCI-H23 lung
[11] = tested on: SK-MEL-5 melanoma
[12] = tested on: COLO 205 colon
[13] = tested on: HT29 colon
[14] = tested on: HCT-15 colon
[15] = tested on: 786-0 renal
[16] = tested on: MDA-MB-435
[17] = tested on: HCT-116 colon
[18] = tested on: SNB-75 CNS
[19] = tested on: A498 renal
[20] = tested on: K-562 leukemia
[21] = tested on: A549 NSCLC
[22] = tested on: SR leukemia
[23] = tested on: BT-549 breast
[24] = tested on: HCC-2998 colon
[25] = tested on: MALME-3M melanoma
[26] = tested on: IGROV1 ovarian
[27] = tested on: SK-MEL-28 melanoma
[28] = tested on: CAKI-1 renal
[29] = tested on: UACC-257 melanoma
[30] = tested on: ACHN renal
[31] = tested on: SK-MEL-2 melanoma
[32] = tested on: SF-539 CNS
[33] = tested on: PC-3 prostate
[34] = tested on: OVCAR-5 ovarian
[35] = tested on: EKVX NSCLC
[36] = tested on: HOP-62 NSCLC
[37] = tested on: M14 melanoma
[38] = tested on: TK-10 renal
[39] = tested on: HS 578T breast
[40] = tested on: DU-145 prostate
[41] = tested on: MOLT-4 leukemia
[42] = tested on: U251 CNS
[43] = tested on: HL-60(TB) leukemia
[44] = tested on: RXF 393 renal
[45] = tested on: SW-620 colon
[46] = tested on: NCI/ADR-RES ovarian
[47] = tested on: MCF7 breast
[48] = tested on: SF-268 CNS
[49] = tested on: KM12 colon
[50] = tested on: OVCAR-4 ovarian
[51] = tested on: LOX IMVI melanoma
[52] = tested on: CCRF-CEM leukemia
[53] = tested on: OVCAR-3 ovarian
[54] = tested on: SF-295 CNS
[55] = tested on: NCI-H226 lung
[56] = tested on: UO-31 renal
[57] = tested on: MDA-MB-231 breast

For `COc1cc2c(cc1Nc1nc(N3CCc4ccccc43)c3cc[nH]c3n1)N(C(=O)CN(C)C)CC2`, the GI50 [1] was 1.29 µM, the TGI [1] was 2.79 µM and the GI50 [2] was 3.94 µM. The TGI [2] was 11.7 µM, the GI50 [3] was 3.05 µM and the TGI [3] was 7.47 µM. The GI50 [4] was 4.71 µM, the TGI [4] was 9.08 µM and the GI50 [5] was 1.67 µM. It also gave a TGI [5] of 3.84 µM, a GI50 [6] of 4.44 µM and a TGI [6] of 11.5 µM. For the same compound, the GI50 [7] was 7.91 µM, the TGI [7] was 16.7 µM and the GI50 [8] was 1.55 µM. It also gave a TGI [8] of 3.98 µM, a GI50 [9] of 20.5 µM and a TGI [9] of 25 µM. It also gave a GI50 [10] of 4.98 µM, a TGI [10] of 14.6 µM and a GI50 [11] of 4.26 µM. The TGI [11] was 11 µM, the GI50 [12] was 5.4 µM and the TGI [12] was 14.3 µM. It also gave a GI50 [13] of 0.364 µM, a TGI [13] of 0.731 µM and a GI50 [14] of 1.25 µM. The TGI [14] was 2.81 µM, the GI50 [15] was 3 µM and the TGI [15] was 8.99 µM. For the same compound, the GI50 [16] was 2.64 µM, the TGI [16] was 7.91 µM and the GI50 [17] was 1.33 µM. The TGI [17] was 2.91 µM, the GI50 [18] was 4.88 µM and the TGI [18] was 9.97 µM. The GI50 [19] was 8.43 µM, the TGI [19] was 14.1 µM and the GI50 [20] was 0.478 µM. For the same compound, the TGI [20] was 1.2 µM, the GI50 [21] was 3.34 µM and the TGI [21] was 8.88 µM. The GI50 [22] was 0.517 µM, the TGI [22] was 1.28 µM and the GI50 [23] was 8.38 µM. It also gave a TGI [23] of 15.7 µM, a GI50 [24] of 3.13 µM and a TGI [24] of 7.33 µM. It also gave a GI50 [25] of 5.03 µM, a TGI [25] of 11 µM and a GI50 [26] of 10.9 µM. It also gave a TGI [26] of 17.1 µM, a GI50 [27] of 1.4 µM and a TGI [27] of 3.38 µM. It also gave a GI50 [28] of 11 µM, a TGI [28] of 16.3 µM and a GI50 [29] of 4.25 µM. It also gave a TGI [29] of 9.3 µM, a GI50 [30] of 4.4 µM and a TGI [30] of 8.82 µM. For the same compound, the GI50 [31] was 6.01 µM, the TGI [31] was 12.3 µM and the GI50 [32] was 4.88 µM. For the same compound, the TGI [32] was 10.8 µM, the GI50 [33] was 2.24 µM and the TGI [33] was 6.43 µM. The GI50 [34] was 1.22 µM, the TGI [34] was 5.63 µM and the GI50 [35] was 5.11 µM. For the same compound, the TGI [35] was 13.9 µM, the GI50 [36] was 4.62 µM and the TGI [36] was 9.46 µM. For the same compound, the GI50 [37] was 0.6 µM, the TGI [37] was 1.51 µM and the GI50 [38] was 1.67 µM. It also gave a TGI [38] of 3.37 µM, a GI50 [39] of 4.52 µM and a TGI [39] of 11.4 µM. The GI50 [40] was 1.71 µM, the TGI [40] was 3.87 µM and the GI50 [41] was 1.88 µM. The TGI [41] was 4.79 µM, the GI50 [42] was 4.67 µM and the TGI [42] was 9.83 µM. It also gave a GI50 [43] of 1.18 µM, a TGI [43] of 6.82 µM and a GI50 [44] of 3.55 µM. For the same compound, the TGI [44] was 8.89 µM, the GI50 [45] was 0.35 µM and the TGI [45] was 0.8 µM. It also gave a GI50 [46] of 0.731 µM, a TGI [46] of 2.81 µM and a GI50 [47] of 0.48 µM. For the same compound, the TGI [47] was 2.09 µM, the GI50 [48] was 5.03 µM and the TGI [48] was 10.3 µM. It also gave a GI50 [49] of 1.49 µM, a TGI [49] of 2.81 µM and a GI50 [50] of 2.84 µM. The TGI [50] was 9.04 µM, the GI50 [51] was 1.59 µM and the TGI [51] was 10.2 µM. For the same compound, the GI50 [52] was 0.611 µM, the TGI [52] was 1.49 µM and the GI50 [53] was 2.08 µM. For the same compound, the TGI [53] was 4.98 µM, the GI50 [54] was 4.79 µM and the TGI [54] was 11.8 µM. It also gave a GI50 [55] of 11.3 µM, a TGI [55] of 20.1 µM and a GI50 [56] of 5.26 µM. It also gave a TGI [56] of 11.6 µM, a GI50 [57] of 5.86 µM and a TGI [57] of 12.7 µM.
